Measured values taken from patent US20160176914A1, “GLYCOSYLATED CARDIOTONIC STEROIDS” (priority 2013, published 2016).
Read-outs that look alike come from different tables or passages of the source.

Experiments:
NCI-H460 cells = experiment: cells; format: cell-based, Human; conditions: for IC50: Homo sapiens; for cytotoxicity / activity for H460 cells, in words: comparison
Experimental: Human non-small cell lung cancer cells (NCI-H460) were purchased from the American Type Culture Collection (Manassas, Va.). NCI-H460 cells were cultured in RPMI 1640 medium supplemented with 10% bovine fetal serum (FBS), 2 mM L-glutamine and 100-units/ml penicillin/streptomycin. All experiments with NCI-H460 cells were performed in medium enriched with 1% FBS serum, 2 mM L-glutamine and 100-units/ml penicillin/streptomycin. 1% FBS was used due to existing concerns about digitoxin binding to serum proteins.
Cells were seeded overnight in 96 well plates at a concentration of 1×10^4 cells/well, and then treated for 48 h with a log10 scale dilution series of the glycosylated CS compounds (e.g., digitoxin or D6-MA) dissolved in sterile filtered DMSO. Subsequently, 10 μl of 5 mg/ml MTT reagent was added to each well and then incubated for 4 h at 37° C. Isopropanol acidified with 0.04 N HCl was used to dissolve converted dye. Absorbance at 570 nm was measured using an Automated Microplate Reader ELx800 (BioTek, Winooski, Vt.). Each experiment was conducted 4 times with 4 replicate wells per concentration.
All results are presented as mean±standard deviation. For cell viability, ATPase activity and apoptosis assays, dose-response curves and concentrations that caused 50% effect (i.e. IC50) were calculated for the prepared compounds listed in Tables 1-3 in all the cell lines tested using non-linear regression analysis in GraphPad Prism 5.0 (San Diego, Calif.). Two-way analysis of variance (ANOVA) and unpaired two-tailed Student's t-test with α=0.05 were performed to compare the effect of compounds and administered dose on cell viability, apoptosis and quantified protein expression data. Post-hoc Tukey-Kramer HSD tests were conducted on significant ANOVA results. Results were considered significant when p≦0.05.

α3β1 Na+/K+ ATPase = α3β1 Na+/K+ ATPase (Homo sapiens, UniProt P13637); experiment: Na+/K+ ATPase pump binding, α3β1 isoform (radioactive displacement assay)
Experimental: (§1) α1/2/3-Na^+/K^+ ATPase pump binding data was assessed for compounds of Table 1.
(§2) Further, from the results, a strong correlation between cancer cell cytotoxicity and α1/3-Na^+/K^+ ATPase pump binding selectivity was observed (see: α-L-amiceto-mono-, di- and tri-saccharides; Scheme 1). In addition, it was observed that mono-saccharides have improved activity and α1/2/3-isoform selectivity. […] The Na^+/K^+ ATPase binding data also correlates with the cytotoxicity data, which can be seen in the binding data of compounds 1.5-1.7 to all three isomers (α1β1/α2β1/α3β1), which decreases proportionally the MTT data (Table 1).

α2β1 Na+/K+ ATPase = α2β1 Na+/K+ ATPase (Homo sapiens, UniProt P50993); experiment: Na+/K+ ATPase pump binding, α2β1 isoform (radioactive displacement assay)
Experimental: as §1, §2

α1β1 Na+/K+ ATPase = α1β1 Na+/K+ ATPase (Homo sapiens, UniProt P05023); experiment: Na+/K+ ATPase pump binding, α1β1 isoform (radioactive displacement assay)
Experimental: as §1, §2

HCMV = experiment: Anti-CMV activity assay, inhibition of HCMV replication in infected HFFs; format: cell-based, human Cytomegalovirus (HCMV); conditions: anti-HCMV activity in infected HFFs; read-out: EC50
Experimental: It has been observed that the infection of human foreskin fibroblasts (HFF) cells with HCMV causes an up regulation of the α3-isoform of the Na^+/K^+-Pump. Therefore the inhibition of HCMV replication by the compounds described herein was tested using procedure described by Cai, H. et al., in Med. Chem. Lett. 2014, 5, 395-399, which is incorporated by reference in its entirety. Generally, inhibition of Towne HCMV: pp28-luciferase activity was measured in cell lysates of HCMV-infected HFFs collected at 72 h post infection (hpi). Virus DNA yield in supernatants of HCMV-infected cells collected at 96 hpi was measured by real-time PCR. Plaque reduction assay performed at 8 days postinfection. Data represent mean values (±SD) of triplicate determinations from three independent experiments.
Inhibition of TB40 HCMV: HFFs were infected with HCMV-TB40 strain at MOI of 1 pfu/cell and treated with compounds listed in Tables 1-3 for 3 days.
The glycosylated cardiotonic steroid compounds were tested for their anti-cytomegalovirus (CMV) activity. Specifically, the compounds were tested for the ability to inhibit HCMV replication. For each compound, the anti-HCMV activity in infected HFFs was expressed as EC50, whereas cytotoxicity in noninfected HFFs was expressed as CC50. Selectivity index (SI), defined as CC50/EC50, was calculated for each compound.

[1] = NCI-H460, Table 5, H460 cells, compounds of Table 2, read-out: IC50
[2] = NCI-H460, Table 6, H460 cells, compounds of Table 3, read-out: IC50
[3] = NCI-H460, 48 h, read-out: Anticancer MTT IC50

| Molecule | IC50 (NCI-H460 cells; [1]) [nM] | cytotoxicity / activity for H460 cells, in words (NCI-H460 cells) | IC50 (NCI-H460 cells; [2]) [nM] | other results |
| --- | --- | --- | --- | --- |
| CC1O[C@@H](O[C@H]2CCC3(C)C(CC[C@@H]4C3CCC3(C)[C@@H](C5=CC(=O)OC5)CC[C@]43O)C2)C(O)C(O)[C@H]1N (stereo in doubt) [Compound 2.1, digitoxigenin α-L-4-amino-rhamnopyranoside] | 5.1 | improved cytotoxicity |  |  |
| CC1O[C@@H](OC2C(O)[C@H](O[C@H]3CCC4(C)C(CC[C@@H]5C4CCC4(C)[C@@H](C6=CC(=O)OC6)CC[C@]54O)C3)OC(C)[C@@H]2O)C(O)C(O)[C@H]1O (stereo in doubt) [Compound 2.3, digitoxigenin α-L-rhamnopyranosyl-(1 → 3)-α-L-rhamnopyranoside] | 45.5 | does not significantly reduce activity |  |  |
| CC1O[C@H](OC2C(O)[C@H](O[C@H]3CCC4(C)C(CC[C@@H]5C4CCC4(C)[C@@H](C6=CC(=O)OC6)CC[C@]54O)C3)OC(C)[C@@H]2O)C(O)C(O)[C@@H]1O (stereo in doubt) [Compound 2.4, digitoxigenin α-D-rhamnopyranosyl-(1 → 3)-α-L-rhamnopyranoside] | 332 |  |  |  |
| CC1O[C@H](OC2C(O)[C@H](OC3C(O)[C@H](O[C@H]4CCC5(C)C(CC[C@@H]6C5CCC5(C)[C@@H](C7=CC(=O)OC7)CC[C@]65O)C4)OC(C)[C@@H]3O)OC(C)[C@@H]2O)C(O)C(O)[C@@H]1O (stereo in doubt) [Compound 2.9, digitoxigenin α-D-rhamnopyranosyl-(1 → 3)-α-L-rhamnopyranosyl-(1 → 3)-α-L-rhamnopyranoside] | 86 |  |  |  |
| CC1O[C@@H](OC2C(O)[C@H](OC3C(O)[C@H](O[C@H]4CCC5(C)C(CC[C@@H]6C5CCC5(C)[C@@H](C7=CC(=O)OC7)CC[C@]65O)C4)OC(C)[C@@H]3O)OC(C)[C@@H]2O)C(O)C(O)[C@H]1O (stereo in doubt) [Compound 2.10, digitoxigenin α-L-rhamnopyranosyl-(1 → 3)-α-L-rhamnopyranosyl-(1 → 3)-α-L-rhamnopyranoside] | 50.6 |  |  |  |
| C[C@@H]1O[C@@H](O[C@H]2CC[C@@]3(C)[C@H](CC[C@@H]4[C@@H]3C[C@@H](O)[C@]3(C)[C@@H](C5=CC(=O)OC5)CC[C@]43O)C2)CC[C@H]1O (stereo in doubt) [Compound 3.3, digoxigenin α-L-amecitopyranoside] |  | more active than the diastereomeric α-D-sugars | 54 |  |
| C[C@@H]1O[C@@H](O[C@H]2CC[C@@]3(C)[C@H](CC[C@@H]4[C@@H]3C[C@@H](O)[C@]3(C)[C@@H](C5=CC(=O)OC5)CC[C@]43O)C2)[C@H](O)[C@H](O)[C@H]1O (stereo in doubt) [Compound 3.7, digoxigenin α-L-rhamnopyranoside] |  | more active than the diastereomeric α-D-sugars | 19 |  |
| CC1OC(OC2C(C)OC(OC3C(C)OC(OC4CCC5(C)C(CCC6C5CCC5(C)C(C7=CC(=O)OC7)CCC65O)C4)C(O)C3O)C(O)C2O)C(O)C(O)C1O (stereo not shown) [Compound 1.4] |  |  |  | IC50 (NCI-H460 cells; [3]): 1350 nM; Kd (α3β1 Na+/K+ ATPase): 345 nM; Kd (α2β1 Na+/K+ ATPase): 164 nM; Kd (α1β1 Na+/K+ ATPase): 393 nM |
| CC1OC(OC2CCC(OC3CCC4(C)C(CCC5C4CCC4(C)C(C6=CC(=O)OC6)CCC54O)C3)OC2C)CCC1O (stereo not shown) [Compound 1.6] |  |  |  | IC50 (NCI-H460 cells; [3]): 510 nM; Kd (α3β1 Na+/K+ ATPase): 186 nM; Kd (α2β1 Na+/K+ ATPase): 156 nM; Kd (α1β1 Na+/K+ ATPase): 223 nM |
| CC1O[C@@H](O[C@H]2CCC3(C)C(CC[C@@H]4C3CCC3(C)[C@@H](C5=CC(=O)OC5)CC[C@]43O)C2)CC[C@H]1N (stereo partly drawn) [Compound 2.2, digitoxigenin α-L-4-amino-amecitopyranoside] | 3.1 | improved cytotoxicity |  |  |
| CC1OC(O[C@H]2CCC3(C)C(CCC4C3CCC3(C)[C@@H](C5=CC(=O)OC5)CC[C@]43O)C2)C(O)C(OC2CC[C@@H](O)C(C)O2)[C@H]1O (stereo partly drawn) [Compound 2.5, [2,3-dihydro-4-hydroxy-α-L-Amip-(1→3)-2,4-dihydroxy-α-L-Rhap]-Dig] | 389 |  |  |  |
| CC1OC(O[C@H]2CCC3(C)C(CCC4C3CCC3(C)[C@@H](C5=CC(=O)OC5)CC[C@]43O)C2)C(O)C(OC2CC[C@H](O)C(C)O2)[C@H]1O (stereo partly drawn) [Compound 2.6, [2,3-dihydro-4-hydroxy-α-D-Amip-(1→3)-2,4-dihydroxy-α-L-Rhap]-Dig] | 651 |  |  |  |
| CC1O[C@H](O[C@H]2C(C)O[C@@H](O[C@H]3CCC4(C)C(CC[C@@H]5C4CCC4(C)[C@@H](C6=CC(=O)OC6)CC[C@]54O)C3)C(O)C2O)C(O)C(O)[C@@H]1O (stereo partly drawn) [Compound 2.7, digitoxigenin α-D-rhamnopyranosyl-(1 → 4)-α-L-rhamnopyranoside] | 70 | much greater activity |  |  |
| C[C@H]1O[C@H](O[C@H]2CC[C@@]3(C)[C@H](CC[C@@H]4[C@@H]3C[C@@H](O)[C@]3(C)[C@@H](C5=CC(=O)OC5)CC[C@]43O)C2)CC[C@@H]1O [Compound 3.1] |  |  | 253 |  |
| C[C@H]1O[C@H](O[C@H]2CC[C@@]3(C)[C@H](CC[C@@H]4[C@@H]3C[C@@H](O)[C@]3(C)[C@@H](C5=CC(=O)OC5)CC[C@]43O)C2)[C@@H](O)[C@@H](O)[C@@H]1O [Compound 3.2] |  |  | 486 |  |
| CC(=O)O[C@@H]1C[C@H]2[C@@H](CC[C@@H]3C[C@@H](O[C@H]4CC[C@@H](O)[C@H](C)O4)CC[C@@]32C)[C@@]2(O)CC[C@H](C3=CC(=O)OC3)[C@@]12C [Compound 3.4] |  |  | 3440 |  |
| C[C@@H]1O[C@@H](O[C@H]2CC[C@@]3(C)[C@H](CC[C@@H]4[C@@H]3C[C@@H](OC(=O)C(C)(C)C)[C@]3(C)[C@@H](C5=CC(=O)OC5)CC[C@]43O)C2)CC[C@H]1O [Compound 3.5] |  | greatly reduced activity | ≥ 50000 |  |
| C[C@@H]1O[C@@H](O[C@H]2CC[C@@]3(C)[C@H](CC[C@@H]4[C@@H]3C[C@@H](O[Si](C)(C)C(C)(C)C)[C@]3(C)[C@@H](C5=CC(=O)OC5)CC[C@]43O)C2)CC[C@H]1O [Compound 3.6] |  |  | 29700 |  |
| CC(=O)O[C@@H]1C[C@H]2[C@@H](CC[C@@H]3C[C@@H](O[C@@H]4O[C@@H](C)[C@H](O)[C@@H](O)[C@H]4O)CC[C@@]32C)[C@@]2(O)CC[C@H](C3=CC(=O)OC3)[C@@]12C [Compound 3.8] |  |  | 5980 |  |
| C[C@@H]1O[C@@H](O[C@H]2CC[C@@]3(C)[C@H](CC[C@@H]4[C@@H]3C[C@@H](OC(=O)CCl)[C@]3(C)[C@@H](C5=CC(=O)OC5)CC[C@]43O)C2)[C@H](O)[C@H](O)[C@H]1O [Compound 3.9] |  |  | 105 |  |
| C[C@@H]1O[C@@H](O[C@H]2CC[C@@]3(C)[C@H](CC[C@@H]4[C@@H]3C[C@@H](OC(=O)C(C)(C)C)[C@]3(C)[C@@H](C5=CC(=O)OC5)CC[C@]43O)C2)[C@H](O)[C@H](O)[C@H]1O [Compound 3.10] |  | greatly reduced activity | ≥ 50000 |  |
| C[C@@H]1O[C@@H](O[C@H]2CC[C@@]3(C)[C@H](CC[C@@H]4[C@@H]3C[C@@H](O[Si](C)(C)C(C)(C)C)[C@]3(C)[C@@H](C5=CC(=O)OC5)CC[C@]43O)C2)[C@H](O)[C@H](O)[C@H]1O [Compound 3.11] |  |  | 2250 |  |
| α-D-Mannose |  |  |  | EC50 (HCMV): 7.31 ± 0.12 nM |
